Results on ten molecules are retold here after patent US4649203A, “Ketoalkylphospholipids” (Takeda Chemical Industries, Ltd., priority 1983, dated 1987).

In data set [1] the test system is sarcoma 180 cells. In words: Antitumor activity, sarcoma 180, drug given 4 days before inoculation (Test Examples 1 and 7). Format: in vivo, ICR mice. The conditions noted are these: for Number of surviving animals/Number of animals tested: 47th day, conditions of Test Example 1; for life span prolonging ratio (T/C): ICR mice, 1 mg/mouse, 4 days before i.p. inoculation of 1×10^5 sarcoma 180 cells. Here is the method: Four days later, 1×10^5 sarcoma 180 cells were inoculated intraperitoneally into each mouse. […] The compounds of Examples 1, 4 and 6 were tested under the same conditions as Test Example 1. The value of the number of surviving animals represents the number of animals which survived on the 47th day.

The test system of data set [2] is sarcoma 180 cells. In words: Antitumor activity, sarcoma 180, drug given after inoculation (Test Examples 2, 3 and 8). Format: in vivo, ICR mice. The conditions noted are these: for Number of surviving animals/Number of animals tested: 47th day, conditions of Test Example 2; for life span prolonging ratio (T/C): ICR mice, 0.33 mg/mouse at hour 1, day 1 and day 2 after i.p. sarcoma 180 inoculation. From the text:
ICR mice (5 animals per group) were intraperitoneally inoculated with 1×10^5 sarcoma 180 cells per mouse. […] The life span prolonging ratio as compared with the control (no drug treatment) group was 206. […] The life span prolonging ratio was 257. […] The value of the number of surviving animals represents the number of animals which survived on the 47th day.

The subject of a further data set is washed PRP (platelets). Description: Action on platelets: platelet aggregation caused by test drug (Test Example 9). The class given is cell-based. The conditions noted are these: 3×10^-5 M, rabbit washed PRP, 37° C. Here is the method:
A blood sample was taken from a male rabbit using a syringe containing 3.15% citric acid (1 to 9 volumes of blood) as anticoagulant, and centrifuged at 1000 rpm and room temperature for 10 minutes to give platelet rich plasma (PRP). The PRP was further centrifuged at 1400 rpm for 15 minutes. The platelet pellet thus obtained was suspended in Ca^++ -free Tyrode (containing 0.25% of gelatin). A 250 μl portion of the thus-prepared washed PRP was stirred at 37° C. for 2 minutes, then 25 μl of 0.2-0.5 mM Ca^++ solution was added and the mixture was further stirred for 30 seconds. Thereafter, the test drug was added in an amount sufficient to make a concentration of 3×10^-5M. Platelet aggregation was measured using an aggregation meter (Rigaku Denki).

The next data set has as its system MM46 cells. In words: Antitumor activity, MM46 (Test Example 6). The class given is in vivo, C3H/He mice. The note with it: 5 animals per group; 0.25 mg/mouse i.p. 4 days before and 4 days after inoculation; controls all died within 21 days. Here is the method: The compound of Example 7 was intraperitoneally administered to C3H/He mice (5 animals per group) in a dose of 0.25 mg/mouse for 4 consecutive days.
On the 5th day, 1×10^4 MM46 cells were intraperitoneally inoculated into each mouse, and the compound of Example 7 was again administered intraperitoneally to the mice in a dose of 0.25 mg/mouse for 4 days starting from day 1 after inoculation.

The test system of another data set is blood pressure. The note with it: rat, in vivo, iv.
For a further data set, the system named is Meth A sacoma cells. In words: Antitumor activity, Meth A sarcoma (Test Example 4). The class given is in vivo, Balb/C mice. The note with it: 0.5 mg/mouse once daily for 5 days at site of inoculation; tumors weighed day 15. The method, then: Balb/C mice (5 animals per group) were each subcutaneously inoculated with 1×10^5 Meth A sacoma cells. Separately, a solution of the compound of Example 7 in physiological saline was administered to the mice at the site of inoculation in a dose of 0.5 mg/mouse once daily for 5 consecutive days starting from day 1 after tumor cell inoculation. On day 15, the tumor tissues were excised and weighed. The inhibition ratio as compared with the control group was 83%.

Data set [3] can be described thus: Toxicity testing, LD50 (Test Example 11). The conditions noted are these: mouse, in vivo, ip; ICR mice, intraperitoneal, in physiological saline. Here is the method:
LD50 values were determined in ICR mice by intraperitoneally administering each test compound in the form of a solution in physiological saline.

In the next data set the test system is P388 leukemia cells. In words: Antitumor activity, P388 leukemia (Test Example 5). The class given is in vivo. The note with it: CDF1 mice, 1 mg/mouse i.p. once per day for 14 days. The method, then: CDF1 mice (5 animals per group) were each intraperitoneally inoculated with 1×10^5 P388 leukemia cells. Separately, a solution of the compound of Example 7 in physiological saline was intraperitoneally administered to the mice in a dose of 1 mg/mouse once per day for 14 consecutive days starting from day 1 after tumor implantation. The life span prolonging ratio as compared with the control group was 140.

The test system of the next data set is PAF. In words: Anti-PAF activity, inhibition of PAF-induced platelet aggregation (Test Example 14). The class given is cell-based. The conditions noted are these: Oryctolagus cuniculus, 3×10^-5 M, rabbit washed PRP, read-out: percentage inhibition of maximum aggregation due to PAF. Here is the method: A blood sample was taken directly from a male rabbit using a syringe containing 3.15% citric acid (1 to 9 volumes of blood) as anticoagulant, and centrifuged at 1000 rpm and room temperature for 10 minutes to give platelet rich plasma (PRP). The PRP was further centrifuged at 1400 rpm for 15 minutes. The platelet pellet thus obtained was suspended in Ca^++ -free Tyrode (containing 0.25% of gelatin). A 250-μl portion of the thus-prepared washed PRP was stirred at 37° C. for 2 minutes, then 25 μl of 0.2-0.5 mM Ca^++ solution was added and the mixture was further stirred for 30 seconds. Thereafter, the compound of Example 8 was added to a concentration of 3×10^-5 M. Platelet aggregation was measured with an aggregation meter (Rigaku Denki). The activity of the compound of Example 8 as determined in terms of percentage inhibition based on the maximum light transmittance (maximum aggregation) due to PAF in the control PRP was 94%.

The test system of the next data set is Tetrahymena pyriformis W. Description: Microprotozoal growth inhibiting activity, liquid dilution method (Test Example 13). The class given is cell-based. The conditions noted are these: 28° C., 44-48 hours, pH 7.0. The method, then:
The compounds given in Table 4 were tested for microprotozoal growth inhibiting activity (expressed in terms of MIC) in Tetrahymena pyriformis W by the liquid dilution method by cultivating said test microorganism in a test medium [20 g of Tryptose peptone (Difco), 1 g of yeast extract, 2 g of glucose, 1000 ml of distilled water, 10 ml of 1M phosphate buffer, pH 7.0] at 28° C. for 44-48 hours.

Another data set deals with Botrytis cinerea. Description: Antifungal activity, serial dilution method. Format: cell-based. The note with it: 1% glucose bouillon agar, read-out: MIC, Botrytis cinerea (gray mold).
For a further data set, the system named is Pyricularia oryzae. In words: microbe, parasite or virus in culture. The class given is cell-based. The note with it: read-out: MIC, Pyricularia oryzae (rice blast).
The next data set relates to Sclerotinia sclerotiorum. In words: Antifungal activity, serial dilution method. Format: cell-based. The conditions noted are these: 1% glucose bouillon agar, read-out: MIC, Sclerotinia sclerotiorum (kidney bean stem rot).
A further data set concerns platelets. The conditions noted are these: Hanahan et al., Biochem. Biophys. Res. Commun., 99, 183 (1981); cited from earlier work.
Data set [4] can be described thus: Adverse effects (general statement).
For the next data set, the system named is Elsinoe fawcetti. In words: Antifungal activity, serial dilution method. The class given is cell-based. The conditions noted are these: 1% glucose bouillon agar; read-out: MIC, Elsinoe fawcetti (citrus scab).
A further data set deals with Cercospora beticola. Description: Antifungal activity, serial dilution method. The class given is cell-based. The conditions noted are these: read-out: MIC, Cercospora beticola (sugar beat leaf spot).
For a further data set, the system named is Diaporthe citri. In words: Antifungal activity, serial dilution method. The class given is cell-based. The note with it: 1% glucose bouillon agar, read-out: MIC, Diaporthe citri (citrus melanose).

≈ marks a conversion by molar mass, not a printed value. Where two headings read alike, the source gives them in different places.

Description for blood pressure: Seven-week-old male Spraugue-Dawley rats (200-290 g) were anesthesized by intraperitoneal administration of 60 mg/kg of pentobarbital sodium and the left carotid artery (for blood pressure measurement) and left femoral vein (for intravenous drug administration) were cannulated.

As to `CCCCCCCCCCCCCCCC(=O)COCC(COP(=O)([O-])OCC[N+](C)(C)C)OC` (centres unmarked) [Example 1, 3-(2-Oxoheptadecyloxy)-2-methoxypropyl 2-trimethylammonioethyl phosphate], the “Number of surviving animals/Number of animals tested” value in the data set with sarcoma 180 cells [1] and in the data set on sarcoma 180 cells [2] was 0/5 each time. The “life span prolonging ratio (T/C)” value with sarcoma 180 cells [1] turned out to be 290; in the data set on sarcoma 180 cells [2], 340.
Turning to `CCCCCCCCCCCCCCC(=O)COCC(COP(=O)([O-])OCC[N+](C)(C)C)OC` (centres unmarked) [Example 4, 3-(2-Oxohexadecyloxy)-2-methoxypropyl 2-trimethylammonioethyl phosphate], in the data set on sarcoma 180 cells [1], the “Number of surviving animals/Number of animals tested” value is 0/5 and the “life span prolonging ratio (T/C)” value worked out at 224. Also, in the data set on sarcoma 180 cells [2], the “Number of surviving animals/Number of animals tested” value was 0/5 and the “life span prolonging ratio (T/C)” value was 230.
As for `CCCCCCCCCCCCCCCCCCC(=O)COCC(COP(=O)([O-])OCC[N+](C)(C)C)OC` (centres unmarked) [Example 6, 3-(2-Oxoeicosyloxy)-2-methoxypropyl 2-trimethylammonioethyl phosphate], in the data set on sarcoma 180 cells [1], the “Number of surviving animals/Number of animals tested” value is reported as 1/5 and the “life span prolonging ratio (T/C)” value amounted to 236. For the same molecule, in the data set with sarcoma 180 cells [2], the “Number of surviving animals/Number of animals tested” value is recorded as 0/5 and the “life span prolonging ratio (T/C)” value is listed as 338.
On to `CCCCCCCCCCCCCCCCC(=O)COCC(COP(=O)([O-])OCC[N+](C)(C)C)OC` (centres unmarked) [Example 7, 3-(2-Oxooctadecyloxy)-2-methoxypropyl 2-trimethylammonioethyl phosphate], for which the “platelet aggregation (in words)” value with washed PRP (platelets) is recorded as “did not cause aggregation at all”; in the data set with washed PRP (platelets) (listed as drawing 39), “No aggregation”. Also, the “animals survived on day 46” value in the data set with MM46 cells is recorded as 4 animals. Further, the “life span prolonging ratio (T/C)” value with sarcoma 180 cells [1] is reported as 180; with sarcoma 180 cells [2], 206. Further, the “Hypotensive action [duration]” value in the data set on blood pressure is less than 30 s. Besides, in the data set with blood pressure, the “Hypotensive action ΔP” value is -5 mmHg. Further, the “blood pressure decrease (in words)” value with blood pressure was “no observable blood pressure decrease”. Further, the “inhibition ratio (tumor weight) as compared with control group” value in the data set on Meth A sacoma cells turned out to be 83%. In [3], the LD50 was greater than 150 mg/kg. Also, in the data set with P388 leukemia cells, the “life span prolonging ratio as compared with the control group” value is listed as 140.
For the molecule `CCCCCCCCCCCCCCCCC(=O)COCC(COP(=O)([O-])OCC[n+]1ccsc1)OC` (centres unmarked) [Example 8, 3-(2-Oxooctadecyloxy)-2-methoxypropyl 2-thiazolioethyl phosphate], the inhibition at 30 µM with PAF worked out at 94%. For the same molecule, in the data set with blood pressure, the “Hypotensive action [duration]” value was less than 30 s, the “Hypotensive action ΔP” value is given as -3 mmHg and the “blood pressure decrease (in words)” value is “no observable blood pressure decrease”. The median lethal dose (LD50) in data set [3] is greater than 150 mg/kg. Further, the “life span prolonging ratio (T/C)” value with sarcoma 180 cells [2] is reported as 257.
`CCCCCCCCCCCCCCCCCCOCC(COP(=O)([O-])OCC[N+](C)(C)C)OC` (centres unmarked) [compound (XIII), reference compound]: the MIC against Tetrahymena pyriformis W is 1 µg/mL (≈ 1.91 µM); in the data set with Botrytis cinerea it was 25 µg/mL (≈ 47.7 µM); in the data set on Pyricularia oryzae it was 6.25 µg/mL (≈ 11.9 µM); in the data set with Sclerotinia sclerotiorum, greater than 100 µg/mL. Moreover, in the data set on sarcoma 180 cells [1], the “life span prolonging ratio (T/C)” value was 170. The “Hypotensive action [duration]” value in the data set on blood pressure turned out to be 270 s. Moreover, the “Hypotensive action ΔP” value in the data set with blood pressure is -43 to -75 mmHg. Also, the “platelet aggregating activity (in words)” value in the data set on platelets is listed as “platelet aggregating activity”. The molecule further had a 50% lethal dose (LD50) in data set [3] of 25 to 50 mg/kg. For the same molecule, the “adverse effects (in words)” value in data set [4] is “hypotensive activity and local irritation (necrosis) is also noted”.
`CCCCCCCCCCCCCCCCC(=O)COCC(COP(=O)([O-])OCC[N+](C)(C)C)OC` (centres unmarked) [drawing 44] showed an MIC against Tetrahymena pyriformis W of 0.4 µg/mL (≈ 0.744 µM).
As to `CCCCCCCCCCCCCCCCC(=O)COCC(COP(=O)([O-])OCC[n+]1ccsc1)OC` (centres unmarked) [drawing 45], the MIC in the data set on Tetrahymena pyriformis W was 1 to 2 µg/mL (≈ 1.77 to 3.55 µM).
`CCCCCCCCCCCCCCCCC(=O)COCC(COP(=O)([O-])OCC[N+](C)(C)C)OC` (centres unmarked) [drawing 49]: the MIC was 6.25 µg/mL (≈ 11.6 µM) in the data set on Botrytis cinerea; 6.25 µg/mL (≈ 11.6 µM) in the data set with Elsinoe fawcetti; 3.12 µg/mL (≈ 5.8 µM) in the data set on Cercospora beticola; 3.12 µg/mL (≈ 5.8 µM) with Pyricularia oryzae; 25 µg/mL (≈ 46.5 µM) in the data set with Sclerotinia sclerotiorum; 6.25 µg/mL (≈ 11.6 µM) in the data set with Diaporthe citri.
For the molecule `CCCCCCCCCCCCCCCCC(=O)COCC(COP(=O)([O-])OCC[n+]1ccsc1)OC` (centres unmarked) [drawing 51], the MIC in the data set on Botrytis cinerea was determined as 100 µg/mL (≈ 177 µM); in the data set on Elsinoe fawcetti, 12.5 µg/mL (≈ 22.2 µM); in the data set on Cercospora beticola (1% glucose bouillon agar), 12.5 µg/mL (≈ 22.2 µM); with Pyricularia oryzae, 3.12 µg/mL (≈ 5.53 µM); in the data set on Sclerotinia sclerotiorum, 25 µg/mL (≈ 44.3 µM); in the data set on Diaporthe citri it was 12.5 µg/mL (≈ 22.2 µM).

A word on the LD50: it is the dose at which mortality reaches 50%. A higher LD50 goes with lower toxicity. What is called inhibition is the change of the read-out against control, counted positive when it falls.
